The values below come from patent US20160361255A1, “Peptide Nanotubes for Slow Release of Drugs at Peripheral Nerve Injury” (The University of Toledo, priority 2015, published 2016).

Data set [1] has as its system differentiated dopaminergic PC12 cells. Briefly: LIVE/DEAD viability of differentiated PC12 cells exposed to 6-OHDA. Type of data set: cell-based. The following applies: 1 μM for 6 h, then 30 μM 6-OHDA for 24 h. The method, then: Differentiated dopaminergic PC12 cells and primary mouse embryonic cortical neurons (E17, DIV14) were treated with mock (H2O) or 1 μM of dextran, alginate, HA-GAGR or midi-GAGR for 6 h and insulated by oxidative stressors (30 μM 6-OHDA [PC12] and 10 μM amyloid β peptide [cortical neurons]) for 24 h. The viability of neurons was assessed using LIVE/DEAD Viability/Cytotoxicity Assay Kit (Invitrogen).

The subject of data set [2] is phosphorylated CREB. Briefly: Nuclear phospho-CREB immunostaining in PC12 cells. In kind it is cell-based. The following applies: 1 μM, 24 h. As for the experimental part: (§1) Differentiated PC12 cells and mouse embryonic cortical neurons (E17, DIV14) were treated with mock, dextran, alginate, HA-GAGR or midi-GAGR (1 μM) for 24 h and fixed in 3.7% paraformaldehyde. The fixed cells and neurons were immunostained with antibodies against α-tubulin and phospho-CREB (p-CREB) along with DAPI (nucleus).

The test system of data set [3] is phosphorylated CREB. Description: Nuclear phospho-CREB immunostaining in cortical neurons. The following applies: 1 μM, 24 h. Type of data set: cell-based, mouse. The method, then: as §1
For data set [4], the system named is rat embryonic cortical neurons. Briefly: Scholl ring analysis of cortical neurons exposed to 4-HNE. In kind it is cell-based. The settings on record: pretreatment 2 days, then 25 μM 4-HNE 1 day. As for the experimental part:
Rat embryonic cortical neurons were treated with mock (FIG. 11C), 1 μM HA-GAGR (high acyl gellan gum), 1 μM dextran, 100 μM ascorbate or 1 μM midi-GAGR (FIG. 11D) for 2 days and then with 25 μM 4-hydroxynonenal (4-HNE), a lipid peroxide, for 1 day. After fixation, neurons were immunostained with anti-synaptophysin antibody (green) and rhodamine-phalloidin (actin: red). Scholl ring analysis was performed. Neurons pre-treated with mock, dextran or ascorbate lost neuritis (neuritic atrophy) in the presence of 4-HNE.

A short description of data set [5]: ABTS Antioxidant Assay Kit. In kind it is biochemical. The settings on record: 10 μM. As for the experimental part:
The antioxidant capacity of midi-GAGR was measured using ABTS Antioxidant Assay Kit (Zenbio Co.). […] This was slightly stronger than antioxidant capacity of LA-GAGR (10 μM LA-GAGR=15.4 μM Trolox) (Table 2)

For data set [6] the following is noted: even at high doses (~200 mg/kg); cited from earlier work.
For data set [7] the following is noted: cited from earlier work.

As to alginate, the 6-OHDA-induced cell death result in data set [1] is on record as “did not”. Moreover, the “increase of nuclear p-CREB levels” value in data set [2] and in data set [3] was “not significantly increased” in each case.
In the case of dextran, in data set [1], the 6-OHDA-induced cell death result is on record as “did not”. The “increase of nuclear p-CREB levels” value in data set [2] and in data set [3] was “not significantly increased” throughout. Also, the “neurites (neuritic atrophy) in the presence of 4-HNE” value in data set [4] is “lost neuritis”.
Consider high acyl gellan gum [HA-GAGR], for which the “increase of nuclear p-CREB levels” value in data set [2] and in data set [3] was “not significantly increased” in each case. Also, the “neurites (neuritic atrophy) in the presence of 4-HNE” value in data set [4] was “formed neuritis, but less branched”.
Substance low acyl gellan gum [LA-GAGR] yielded an antioxidant capacity in data set [5] of 15.4 μM Trolox. In addition, the “side effects in humans” value in data set [6] was “few side effects”. The oral bioavailability result in data set [7] is listed as “good”.
